The record followed here is article PMC5479551, “Development of a range of fluorescent reagentless biosensors for ATP, based on malonyl-coenzyme A synthetase” (PLoS ONE, 2017).

“And” between values parts separate entries of the source, which are not always exact repeats. Identical values can stand only once.

Assay [1] deals with T1, Parent (Rho-MatB) (Rhodopseudomonas palustris, UniProt Q6ND88, C106A/K488A/Q457C/R286C).
T1 construct: N-terminal His6-tag, expressed in E. coli; two tetramethylrhodamines (5-IATR) on introduced cysteines
As to the kind of experiment: Competition fluorescence titration of ATP into 0.5 µM parent Rho-MatB at fixed AMP (500 or 1000 µM) in 50 mM Hepes pH 7.0, 100 mM NaCl, 10 mM MgCl2, 0.3 mg/ml BSA, 20°C. Conditions: read-out: KAMP (ATP titrated at fixed AMP). The assay is classed as binding. As to the method: Fig 6 Competition titrations between ATP and AMP binding to Rho-MatB variants. Titrations were under conditions as Fig 2, using 0.5 μM of the Rho-MatB variant. (A) Titration of AMP into Rho-MatB complex with a fixed concentration of ATP: 7 μM for the parent Rho-MatB (“wt”) and S170A, 50 μM for T303A and 150 μM for T167A. One representative data set is shown. Fluorescence changes were fit to A0[ATP]/(K' +[ATP]), where the apparent dissociation constant for ATP, K' = KATP(1 + [AMP]/KAMP). KATP and KAMP are the actual dissociation constants for ATP and AMP and A0 is the total fluorescence change at that ATP concentration. Taking the previously obtained values for KATP, the values of KAMP were 169 ± 23 μM for the parent Rho-MatB, 225 ± 15 μM for S170A, and 300 ± 12 μM for T167A. […] Data were fitted to the equation above, giving KAMP as 233 ± 11 μM using 500 μM AMP and 255 ± 16 μM at 1000 μM AMP.
Doing the competition titration the other way round, fixing AMP, caused a shift in apparent dissociation constant of ATP. […] Alternatively, fitting the data as described in Fig 6 gave values for the AMP dissociation constant that were similar to those in Fig 6A. The amplitude of the signal changes only little with AMP, but the range of ATP concentrations over the maximal signal change, is increased as AMP increases

For another assay, the target named is T2, T163A Rho-MatB (Rhodopseudomonas palustris, UniProt Q6ND88, C106A/K488A/Q457C/R286C/T163A).
T2 construct: His6-tag, Rho-MatB background, two tetramethylrhodamines (5-IATR)
Nature of the assay: Survey fluorescence titration of tetramethylrhodamine-labelled MatB variants with ATP in 50 mM Tris.HCl pH 7.5, 150 mM NaCl, 10 mM MgCl2, 0.3 mg/ml BSA, 20°C, without full optimization of labelling and purification. The assay is classed as binding. As to the method:
(§1) Data from titrations to measure nucleotide binding were corrected for dilution and analyzed with a quadratic binding curve using Grafit software: F=Fmin+(Fmax−Fmin)×(Kd+L+P−(Kd+L+P)^2−4×P×L)/2×P where P and L are the total concentrations of protein and ligand, respectively, Kd is the dissociation constant, and Fmin and Fmax are the fluorescence intensities of the free and ligand- bound protein, respectively.
(§2) The labeled proteins were then tested for a fluorescence change upon ATP binding in the presence of Mg^2+ (Table 1). For variants showing a significant fluorescence change, the affinity for ATP was determined by titration (Table 1).

The next assay deals with T3, R169A Rho-MatB (Rhodopseudomonas palustris, UniProt Q6ND88, C106A/K488A/Q457C/R169A/R286C).
T3 construct: His6-tag, Rho-MatB background, two tetramethylrhodamines (5-IATR)
The description is as above. The assay is classed as binding. As to the method:
as §1, §2

A further assay has as its target T4, M302A Rho-MatB (Rhodopseudomonas palustris, UniProt Q6ND88, C106A/K488A/M302A/Q457C/R286C).
T4 construct: His6-tag, Rho-MatB background, two tetramethylrhodamines (5-IATR)
The assay is described as above. Type of assay: binding. As to the method: as §1, §2

The target of the next assay is T5, T208A Rho-MatB (Rhodopseudomonas palustris, UniProt Q6ND88, C106A/K488A/Q457C/R286C/T208A).
T5 construct: His6-tag, Rho-MatB background, two tetramethylrhodamines (5-IATR)
Described as above. The assay is classed as binding. How it is done: as §1, §2

A further assay concerns the target T6, T303S Rho-MatB (Rhodopseudomonas palustris, UniProt Q6ND88, C106A/K488A/Q457C/R286C/T303S).
T6 construct: His6-tag, Rho-MatB background, two tetramethylrhodamines (5-IATR)
Described as above. Type of assay: binding. How it is done: as §1, §2

The next assay has as its target T7, T166A Rho-MatB (Rhodopseudomonas palustris, UniProt Q6ND88, C106A/K488A/Q457C/R286C/T166A).
T7 construct: His6-tag, Rho-MatB background, two tetramethylrhodamines (5-IATR)
The assay is described as above. Type of assay: binding. How it is done:
as §1, §2

The target in the next assay is T8, R299A Rho-MatB (Rhodopseudomonas palustris, UniProt Q6ND88, C106A/K488A/Q457C/R286C/R299A).
T8 construct: His6-tag, Rho-MatB background, two tetramethylrhodamines (5-IATR)
The description is as above. The assay is classed as binding. How it is done:
as §1, §2

Assay [2] concerns the target T9, S170A Rho-MatB (Rhodopseudomonas palustris, UniProt Q6ND88, C106A/K488A/Q457C/R286C/S170A).
T9 construct: His6-tag, Rho-MatB background, two tetramethylrhodamines (5-IATR)
Described as above. Type of assay: binding. How it is done: as §1, §2

Assay [3] addresses T1, Parent (Rho-MatB). The assay is described as above. The assay is classed as binding. As to the method: as §1, §2
The target in assay [4] is T10, T303A Rho-MatB (Rhodopseudomonas palustris, UniProt Q6ND88, C106A/K488A/Q457C/R286C/T303A).
T10 construct: His6-tag, Rho-MatB background, two tetramethylrhodamines (5-IATR)
The description is as above. Type of assay: binding. How it is done:
as §1, §2

Another assay addresses T11, T167S Rho-MatB (Rhodopseudomonas palustris, UniProt Q6ND88, C106A/K488A/Q457C/R286C/T167S).
T11 construct: His6-tag, Rho-MatB background, two tetramethylrhodamines (5-IATR)
The description is as above. Type of assay: binding. As to the method: as §1, §2

A further assay deals with T12, H207A Rho-MatB (Rhodopseudomonas palustris, UniProt Q6ND88, C106A/H207A/K488A/Q457C/R286C).
T12 construct: His6-tag, Rho-MatB background, two tetramethylrhodamines (5-IATR)
The assay is described as above. The assay is classed as binding. How it is done:
as §1, §2

The target of another assay is T13, Y300A Rho-MatB (Rhodopseudomonas palustris, UniProt Q6ND88, C106A/K488A/Q457C/R286C/Y300A).
T13 construct: His6-tag, Rho-MatB background, two tetramethylrhodamines (5-IATR)
The description is as above. Type of assay: binding. As to the method: as §1, §2

Assay [5] has as its target T14, T167A Rho-MatB (Rhodopseudomonas palustris, UniProt Q6ND88, C106A/K488A/Q457C/R286C/T167A).
T14 construct: His6-tag, Rho-MatB background, two tetramethylrhodamines (5-IATR)
Described as above. Type of assay: binding. How it is done: as §1, §2

The next assay deals with T15, S164A Rho-MatB (Rhodopseudomonas palustris, UniProt Q6ND88, C106A/K488A/Q457C/R286C/S164A).
T15 construct: His6-tag, Rho-MatB background, two tetramethylrhodamines (5-IATR)
Described as above. Type of assay: binding. As to the method:
as §1, §2

The target in another assay is T16, Q490A Rho-MatB (Rhodopseudomonas palustris, UniProt Q6ND88, C106A/K488A/Q457C/Q490A/R286C).
T16 construct: His6-tag, Rho-MatB background, two tetramethylrhodamines (5-IATR)
The assay is described as above. Type of assay: binding. As to the method:
as §1, §2

Assay [6] addresses T9, S170A Rho-MatB. Nature of the assay: Fluorescence titration (excitation 553 nm, emission 571 nm) of 0.5 µM fully purified Rho-MatB with ATP in 50 mM Hepes pH 7.0, 100 mM NaCl, 10 mM MgCl2, 0.3 mg/ml BSA, 20°C, quadratic binding fit.
From the text: as §1
(§3) Fig 2 Nucleotide affinity for variants of Rho-MatB. Titration of ATP (circles) and ADP (triangles) to (A) 0.5 µM Rho-MatB T167A, (B) 0.5 μM Rho-MatB T303A; (C) 0.5 μM Rho-MatB S170A. Measurements are shown for one representative experiment and were in 50 mM Hepes pH 7.0, 100 mM NaCl, 10 mM MgCl2, 0.3 mg ml^-1 bovine serum albumin at 20°C. Excitation was at 553 nm, emission at 571 nm. The dissociation constants and fluorescence ratios were obtained using a quadratic binding equation (see Methods) and are listed in Table 2. The drop lines are to indicate the dissociation constants. Data are normalized to the intensity in the absence of nucleotide.
(§4) The affinity for ATP and ADP was determined by measuring the fluorescence at different concentrations of the nucleotide (Fig 2A and 2B). Both variants show similar fluorescent changes with ATP compared to the parent Rho-MatB, but the dissociation constants (Kd) are much higher (Table 2). In contrast, the affinity of ADP was much less affected by the mutations, remaining very weak (Table 2). The change in ATP affinity presumably reflects the importance of hydrogen-bonding interactions with the triphosphate, decreased by mutating to alanine.

For assay [7], the target named is T1, Parent (Rho-MatB). Described as above.
From the text: as §1, §3, §4

For assay [8], the target named is T10, T303A Rho-MatB. Described as above.
From the text: as §1, §3, §4

The target of assay [9] is T14, T167A Rho-MatB. The description is as above.
From the text: as §1, §3, §4

T1 sequence (Q6ND88 entry or part of it C106A/R286C/Q457C/K488A): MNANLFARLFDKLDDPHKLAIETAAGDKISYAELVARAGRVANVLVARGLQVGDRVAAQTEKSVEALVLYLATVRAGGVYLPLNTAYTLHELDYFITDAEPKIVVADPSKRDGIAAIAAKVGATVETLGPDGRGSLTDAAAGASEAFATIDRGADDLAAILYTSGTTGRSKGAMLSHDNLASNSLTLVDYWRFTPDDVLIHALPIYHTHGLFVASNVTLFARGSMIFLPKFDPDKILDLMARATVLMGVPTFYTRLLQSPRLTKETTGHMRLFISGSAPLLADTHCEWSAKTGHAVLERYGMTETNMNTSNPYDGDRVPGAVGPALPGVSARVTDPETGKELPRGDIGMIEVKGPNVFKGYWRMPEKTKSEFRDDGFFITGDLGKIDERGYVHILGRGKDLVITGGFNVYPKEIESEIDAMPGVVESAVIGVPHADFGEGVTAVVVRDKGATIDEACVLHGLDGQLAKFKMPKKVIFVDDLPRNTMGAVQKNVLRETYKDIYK
T9 sequence (Q6ND88 entry or part of it C106A/S170A/R286C/Q457C/K488A): as the sequence (Q6ND88 entry or part of it C106A/R286C/Q457C/K488A) above, with S170A counted along it
T10 sequence (Q6ND88 entry or part of it C106A/R286C/T303A/Q457C/K488A): as the sequence (Q6ND88 entry or part of it C106A/R286C/Q457C/K488A) above, with T303A counted along it
T14 sequence (Q6ND88 entry or part of it C106A/T167A/R286C/Q457C/K488A): as the sequence (Q6ND88 entry or part of it C106A/R286C/Q457C/K488A) above, with T167A counted along it
T4 sequence (Q6ND88 entry or part of it C106A/R286C/M302A/Q457C/K488A): as the sequence (Q6ND88 entry or part of it C106A/R286C/Q457C/K488A) above, with M302A counted along it
T12 sequence (Q6ND88 entry or part of it C106A/H207A/R286C/Q457C/K488A): as the sequence (Q6ND88 entry or part of it C106A/R286C/Q457C/K488A) above, with H207A counted along it
T7 sequence (Q6ND88 entry or part of it C106A/T166A/R286C/Q457C/K488A): as the sequence (Q6ND88 entry or part of it C106A/R286C/Q457C/K488A) above, with T166A counted along it
T15 sequence (Q6ND88 entry or part of it C106A/S164A/R286C/Q457C/K488A): as the sequence (Q6ND88 entry or part of it C106A/R286C/Q457C/K488A) above, with S164A counted along it
T8 sequence (Q6ND88 entry or part of it C106A/R286C/R299A/Q457C/K488A): as the sequence (Q6ND88 entry or part of it C106A/R286C/Q457C/K488A) above, with R299A counted along it
T2 sequence (Q6ND88 entry or part of it C106A/T163A/R286C/Q457C/K488A): as the sequence (Q6ND88 entry or part of it C106A/R286C/Q457C/K488A) above, with T163A counted along it
T6 sequence (Q6ND88 entry or part of it C106A/R286C/T303S/Q457C/K488A): as the sequence (Q6ND88 entry or part of it C106A/R286C/Q457C/K488A) above, with T303S counted along it
T13 sequence (Q6ND88 entry or part of it C106A/R286C/Y300A/Q457C/K488A): as the sequence (Q6ND88 entry or part of it C106A/R286C/Q457C/K488A) above, with Y300A counted along it
T11 sequence (Q6ND88 entry or part of it C106A/T167S/R286C/Q457C/K488A): as the sequence (Q6ND88 entry or part of it C106A/R286C/Q457C/K488A) above, with T167S counted along it
T3 sequence (Q6ND88 entry or part of it C106A/R169A/R286C/Q457C/K488A): as the sequence (Q6ND88 entry or part of it C106A/R286C/Q457C/K488A) above, with R169A counted along it
T16 sequence (Q6ND88 entry or part of it C106A/R286C/Q457C/K488A/Q490A): as the sequence (Q6ND88 entry or part of it C106A/R286C/Q457C/K488A) above, with Q490A counted along it
T5 sequence (Q6ND88 entry or part of it C106A/T208A/R286C/Q457C/K488A): as the sequence (Q6ND88 entry or part of it C106A/R286C/Q457C/K488A) above, with T208A counted along it

As to `Nc1ncnc2c1ncn2[C@@H]1O[C@H](COP(=O)(O)O)[C@@H](O)[C@H]1O` [AMP, adenosine 5'-monophosphate], the Kd on Parent (Rho-MatB) [1] was 233 µM and 255 µM.

For `Nc1ncnc2c1ncn2[C@@H]1O[C@H](COP(=O)(O)OP(=O)(O)OP(=O)(O)O)[C@@H](O)[C@H]1O` [ATP, adenosine 5'-triphosphate], the Kd on T163A Rho-MatB turned out to be 297 ± 27 µM; at R169A Rho-MatB, 33 ± 1 µM; at M302A Rho-MatB it was 50 ± 5 µM; at T208A Rho-MatB it was 52 ± 5 µM; at T303S Rho-MatB it was 56 ± 3 µM; on T166A Rho-MatB it was 156 ± 7 µM. For the same compound, the Kd was 2.4 ± 0.1 µM on R299A Rho-MatB; 4 ± 0.1 µM at S170A Rho-MatB [2]; 8.8 ± 0.3 µM at Parent (Rho-MatB) [3]; 42 ± 1 µM at T303A Rho-MatB [4]; 52 ± 1 µM at T167S Rho-MatB; 224 ± 18 µM at H207A Rho-MatB. The Kd worked out at 11.1 ± 0.5 µM at Y300A Rho-MatB; 149 ± 7 µM at T167A Rho-MatB [5]; 17.4 ± 0.4 µM at S164A Rho-MatB; 66 ± 3 µM at Q490A Rho-MatB; 3.8 ± 0.1 µM at S170A Rho-MatB [6]; 6.4 ± 0.6 µM on Parent (Rho-MatB) [7]. Moreover, the results for the Kd on T303A Rho-MatB [8] and at T167A Rho-MatB [9] were 42 ± 2 µM and 123 ± 4 µM, respectively.
